# Source: publication PMC8206213, “An L-2-hydroxyglutarate biosensor based on specific transcriptional regulator LhgR” (Nature Communications, 2021)
# Values joined by “and” are separate entries in the source; they are usually repeats but may differ in a detail not shown here. Equal entries are not always repeated. “Also recorded” adds a separate entry of the source.
# Legend:
# [1] = tested on: LHGFR3N7C expressed in E. coli BL21(DE3); experiment: Control biosensor LHGFR3N7C expressed in E. coli, response to added compounds; format: cell-based; conditions: Supplementary Fig. 14a
# Protocol: To characterize the sensitivity and specificity of LHGFR expressed in E. coli BL21(DE3), 90 μL cell suspensions following 8 h carbon starvation were mixed with 10 μL increasing concentrations of L-2-HG or other compounds, and then added into a black 96-well plate (total 100 μL/per well), the fluorescence intensities were determined using an EnSight microplate reader (PerkinElmer, USA) and the following instrument settings: excitation at 430 nm, emission at 485 nm (mTFP) and 528 nm (Venus), time intervals of 5 min, the temperature at 37 °C, and shake at 180 rpm.
# LhgR = experiment: EMSA, effect of compounds on LhgR binding to the lhgO promoter region F1; set-up: species or system Pseudomonas putida W619; conditions: 50 mM compound, 10 nM F1, 60 nM LhgR
# Protocol: Electrophoretic mobility shift assays (EMSAs) were carried out using the DNA fragment (F1 or F2) and purified LhgR. The DNA fragments were first amplified by primer pairs F1-F/F1-R and F2-F/F2-R, respectively. Then, either fragment at a concentration of 10 nM DNA was incubated with LhgR (0–160 nM) in 20 μL EMSA binding buffer (10 mM Tris-HCl [pH 7.4], 50 mM KCl, 0.5 mM EDTA, 10% [vol/vol] glycerol, and 1 mM dithiothreitol [DTT]). The binding reactions were carried out at 30 °C for 30 min. Electrophoresis was performed on 6% native polyacrylamide gels at 4 °C and 170 V (constant voltage) for about 45 min, followed by staining with SYBR green I (TaKaRa, China) and photographing. Analysis of the interaction between lhgO promoter region (F1) and LHGFR was performed using the same procedure.
# To characterize the effector of LhgR, purified LhgR was first incubated with L-lysine, 5-aminovalerate, glutarate, L-2-HG, D-2-HG, 2-KG, or succinate at 30 °C for 15 min, followed by incubation with the added DNA fragments at 30 °C for 30 min. The mixtures were subsequently subjected to electrophoresis.
# LHGFR0N7C = experiment: Specificity of purified LHGFR0N7C, emission ratio with 240 μM compounds; format: binding, Pseudomonas putida W619; conditions: 240 μM compound
# Protocol: Purified L-2-HG biosensors and different compounds were diluted by 50 mM Tris-HCl buffer (pH 7.4), mixed together in a black 96-well plate at a volume ratio of 3:1, and the fluorescence intensities were measured using an EnSight microplate reader (PerkinElmer, USA) with excitation at 430 nm, emission at 485 nm (mTFP) and 528 nm (Venus). […] The [L-2-HG], Kd, and p refer to the L-2-HG concentration, apparent dissociation constant, and Hill slope, respectively. Emission spectra were recorded at 430 nm excitation, in steps of 2 nm. Excitation spectra were recorded using emission at 550 nm, excitation from 380 to 535 nm in steps of 2 nm.
SMILES,normalized emission ratio of control biosensor expressed in E. coli ([1]; time 0 min),normalized emission ratio of control biosensor expressed in E. coli ([1]; time 5 min),normalized emission ratio of control biosensor expressed in E. coli ([1]; time 10 min),normalized emission ratio of control biosensor expressed in E. coli ([1]; time 15 min),normalized emission ratio of control biosensor expressed in E. coli ([1]; time 20 min),normalized emission ratio of control biosensor expressed in E. coli ([1]; time 25 min),normalized emission ratio of control biosensor expressed in E. coli ([1]; time 30 min),normalized emission ratio of control biosensor expressed in E. coli ([1]; time 35 min),normalized emission ratio of control biosensor expressed in E. coli ([1]; time 40 min),normalized emission ratio of control biosensor expressed in E. coli ([1]; time 45 min),normalized emission ratio of control biosensor expressed in E. coli ([1]; time 50 min),normalized emission ratio of control biosensor expressed in E. coli ([1]; time 55 min),normalized emission ratio of control biosensor expressed in E. coli ([1]; time 60 min),normalized emission ratio of control biosensor expressed in E. coli ([1]; time 65 min),normalized emission ratio of control biosensor expressed in E. coli ([1]; time 70 min),normalized emission ratio of control biosensor expressed in E. coli ([1]; time 75 min),normalized emission ratio of control biosensor expressed in E. coli ([1]; time 80 min),normalized emission ratio of control biosensor expressed in E. coli ([1]; time 85 min),normalized emission ratio of control biosensor expressed in E. coli ([1]; time 90 min),Effect on LhgR binding to the lhgO promoter region F1 (LhgR),further results
"O=C(O)CC[C@H](O)C(=O)O [L-2-HG, L-2-Hydroxyglutarate]",1.025 and 0.9958 and 0.9991 and 1.005,1.029 and 0.9977 and 0.9908 and 1.001,1.016 and 0.9993 and 0.9928 and 0.996,1.012 and 0.9858 and 0.9895 and 0.9948,1.006 and 0.9892 and 0.9883 and 1.004,1.005 and 0.9958 and 0.9871 and 1.006,1.009 and 0.9836 and 0.9873 and 0.9978,1.002 (2×) and 0.988 and 0.9805,1.005 and 0.9884 and 0.9838 and 1.008,1.011 and 0.9924 and 0.993 and 1.004,0.997 and 0.991 and 0.9858 and 1.009,1.0056 and 0.9921 and 0.9909 and 1.012,1.003 and 0.9967 and 0.9937 and 1.007,0.9962 (2×) and 0.991 and 1.017,1.013 and 1.001 and 0.9947 and 1.016,1.004 and 0.9948 and 0.9987 and 1.025,1.011 and 1.0052 and 1.01 and 1.025,1.015 and 0.9941 and 1.005 and 1.023,1.028 and 1.011 and 1.01 and 1.022,prevents LhgR binding to the lhgO promoter region; also recorded: release of LhgR from fragments F1 was observed only in the presence of L-2-HG,Emission ratio (LHGFR0N7C): 2.5923 and 2.613 and 2.627
"O=C(O)CCCC(=O)O [Glutarate, glutarate]",1.008 and 0.9954 and 0.9826 and 0.9922,1.009 and 0.9959 and 0.9842 and 0.997,1.009 and 0.9912 and 0.9859 and 0.9988,1.011 and 0.9845 and 0.9854 and 0.993,1.001 (2×) and 0.9957 and 0.9921,1.004 and 0.9829 and 0.99 and 1.01,1.003 and 0.9825 and 0.992 and 1.008,1.004 (2×) and 0.9933 and 1.0123,1.001 and 1.002 and 0.9991 and 1.015,1.004 and 1.003 and 1.002 and 1.015,1.007 and 1.003 and 0.9994 and 1.015,1.005 and 0.994 and 1.003 and 1.016,1.022 and 0.993 and 1.012 and 1.027,1.018 and 1.003 and 1.0048 and 1.024,1.018 (2×) and 1.011 and 1.029,1.029 and 0.9995 and 1.018 and 1.031,1.036 and 1.008 and 1.027 and 1.028,1.027 and 1.007 and 1.024 and 1.023,1.042 and 1.01 and 1.0199 and 1.034,observed only in the presence of L-2-HG,Emission ratio (LHGFR0N7C): 1.71 (2×) and 1.717; Induction of emission ratio changes (LHGFR0N7C): None
